# Target: cortisol synthase (CYP11B1) (Macaca fascicularis, UniProt A0A2K5ULY1)
# Test: Inhibition of Cortisol Synthesis
# Type: biochemical, cynomolgus monkey
# Conditions: cynomolgus adrenal gland mitochondria; 150 units of CYP11B1, 11-deoxycortisol as substrate, cortisol measured as product
# Method in brief: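 Cynomolgus adrenal mitochondria as enzyme source (1 unit = 1 pmol product/h); 150 units CYP11B1 with 11-deoxycortisol substrate in 100 mM potassium phosphate pH 7.4, 1% DMSO, started with 1 mM NADPH, 90 min at 37 °C. Cortisol quantified by mass spectrometry; no-NADPH blank as 0%, no-compound as 100% activity.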
row,IC50 [µM],SMILES
1,0.82,"NC(=O)c1cccc2c1OCC(c1cncc3c1CCC3O)O2 (single isomer, unassigned) [Cpd 52AB, 2-(7-Hydroxy-6,7-dihydro-5H-[2]pyrindin-4-yl)-2,3-dihydro-benzo[1,4]dioxine-5-carboxylic acid amide]"
2,16,"NC(=O)c1cccc2c1OCC(c1cncc3c1CCC3O)O2 (single isomer, unassigned) [Cpd 52BA, 2-(7-Hydroxy-6,7-dihydro-5H-[2]pyrindin-4-yl)-2,3-dihydro-benzo[1,4]dioxine-5-carboxylic acid amide]"
3,13,"NC(=O)c1cccc2c1OCC(c1cncc3c1CCC3O)O2 (single isomer, unassigned) [Cpd 52BB, 2-(7-Hydroxy-6,7-dihydro-5H-[2]pyrindin-4-yl)-2,3-dihydro-benzo[1,4]dioxine-5-carboxylic acid amide]"
4,23,"CCS(=O)(=O)NCc1cncc(C2COc3c(C#N)cccc3O2)c1 (single isomer, unassigned) [Cpd 54A, Ethanesulfonic acid [5-(5-cyano-2,3-dihydro-benzo[1,4]dioxin-2-yl)-pyridin-3-ylmethyl]-amide]"
5,14,"CCS(=O)(=O)NCc1cncc(C2COc3c(C#N)cccc3O2)c1 (single isomer, unassigned) [Cpd 54B, Ethanesulfonic acid [5-(5-cyano-2,3-dihydro-benzo[1,4]dioxin-2-yl)-pyridin-3-ylmethyl]-amide]"
6,11,"N#Cc1cccc2c1OCC(c1cncc(CC(=O)N3CC[C@@H](O)C3)c1)O2 (single isomer, unassigned) [Cpd 55A]"
7,> 30,"N#Cc1cccc2c1OCC(c1cncc(CC(=O)N3CC[C@@H](O)C3)c1)O2 (single isomer, unassigned) [Cpd 55B]"
8,14,"C[C@H](O)c1c(F)cncc1C1COc2c(cccc2C(N)=O)O1 (single isomer, unassigned) [Cpd 56A]"
9,14,"C[C@H](O)c1c(F)cncc1C1COc2c(cccc2C(N)=O)O1 (single isomer, unassigned) [Cpd 56B]"
10,16,"C[C@@H](O)c1c(F)cncc1C1COc2c(cccc2C(N)=O)O1 (single isomer, unassigned) [Cpd 57A]"
11,15,"C[C@@H](O)c1c(F)cncc1C1COc2c(cccc2C(N)=O)O1 (single isomer, unassigned) [Cpd 57B]"
12,23,"CC(C)(O)c1c(F)cncc1C1COc2c(cccc2C(N)=O)O1 (single isomer, unassigned) [Cpd 58A, 2-[5-Fluoro-4-(1-hydroxy-1-methyl-ethyl)-pyridin-3-yl]-2,3-dihydro-benzo[1,4]dioxine-5-carboxylic acid amide]"
13,3,"CC(C)(O)c1c(F)cncc1C1COc2c(cccc2C(N)=O)O1 (single isomer, unassigned) [Cpd 58B, 2-[5-Fluoro-4-(1-hydroxy-1-methyl-ethyl)-pyridin-3-yl]-2,3-dihydro-benzo[1,4]dioxine-5-carboxylic acid amide]"
14,1.1,"Cc1cncc(C2COc3c(cccc3C(N)=O)O2)c1 (single isomer, unassigned) [Cpd 59A, 2-(5-Methyl-pyridin-3-yl)-2,3-dihydro-benzo[1,4]dioxine-5-carboxylic acid amide]"
15,0.89,"Cc1cncc(C2COc3c(cccc3C(N)=O)O2)c1 (single isomer, unassigned) [Cpd 59B, 2-(5-Methyl-pyridin-3-yl)-2,3-dihydro-benzo[1,4]dioxine-5-carboxylic acid amide]"
16,> 30,"CCS(=O)(=O)NC(c1cncc(C2COc3c(cccc3C(N)=O)O2)c1)C1CC1 (single isomer, unassigned) [Cpd 60AA]"
17,> 30,"CCS(=O)(=O)NC(c1cncc(C2COc3c(cccc3C(N)=O)O2)c1)C1CC1 (single isomer, unassigned) [Cpd 60AB]"
18,> 30,"CCS(=O)(=O)NC(c1cncc(C2COc3c(cccc3C(N)=O)O2)c1)C1CC1 (single isomer, unassigned) [Cpd 60BA]"
19,> 30,"CCS(=O)(=O)NC(c1cncc(C2COc3c(cccc3C(N)=O)O2)c1)C1CC1 (single isomer, unassigned) [Cpd 60BB]"
20,25,"Cc1c(C#N)cncc1C1COc2c(cccc2C(N)=O)O1 (single isomer, unassigned) [Cpd 61A, 2-(5-cyano-4-methyl-pyridin-3-yl)-2,3-dihydro-benzo[1,4]dioxine-5-carboxylic acid amide]"
21,22,"Cc1c(C#N)cncc1C1COc2c(cccc2C(N)=O)O1 (single isomer, unassigned) [Cpd 61B, 2-(5-cyano-4-methyl-pyridin-3-yl)-2,3-dihydro-benzo[1,4]dioxine-5-carboxylic acid amide]"
22,> 30,"CS(=N)(=O)Cc1cncc(C2COc3c(C#N)cccc3O2)c1 (single isomer, unassigned) [Cpd 62AA, 2-(5-{[imino(methyl)oxo-λ^6-sulfanyl]methyl}pyridin-3-yl)-2,3-dihydro-1,4-benzodioxine-5-carbonitrile]"
23,> 30,"CS(=N)(=O)Cc1cncc(C2COc3c(C#N)cccc3O2)c1 (single isomer, unassigned) [Cpd 62AB, 2-(5-{[imino(methyl)oxo-λ^6-sulfanyl]methyl}pyridin-3-yl)-2,3-dihydro-1,4-benzodioxine-5-carbonitrile]"
24,14,"CS(=N)(=O)Cc1cncc(C2COc3c(C#N)cccc3O2)c1 (single isomer, unassigned) [Cpd 62BA, 2-(5-{[imino(methyl)oxo-λ^6-sulfanyl]methyl}pyridin-3-yl)-2,3-dihydro-1,4-benzodioxine-5-carbonitrile]"
25,18,"CS(=N)(=O)Cc1cncc(C2COc3c(C#N)cccc3O2)c1 (single isomer, unassigned) [Cpd 62BB, 2-(5-{[imino(methyl)oxo-λ^6-sulfanyl]methyl}pyridin-3-yl)-2,3-dihydro-1,4-benzodioxine-5-carbonitrile]"
26,24,"N#Cc1cccc2c1OCC(c1cncc(CNC(=O)C(F)(F)F)c1)O2 (centres unmarked) [Cpd 53, N-[5-(5-Cyano-2,3-dihydro-benzo[1,4]dioxin-2-yl)-pyridin-3-ylmethyl]-2,2,2-trifluoro-acetamide]"
